Results taken from patent US20250092065A1, “2-(INDAZOL-5-YL)-6-(PIPERIDIN-4-YL)-1,7-NAPHTHYRIDINE DERIVATIVES AND RELATED COMPOUNDS AS MODULATORS FOR SPLICING NUCLEIC ACIDS AND FOR THE TREATMENT OF PROLIFERATIVE DISEASES” (REMIX THERAPEUTICS INC., priority 2022, published 2025).
Counter-ions that a name gives are not always drawn. Like-named read-outs stand apart in the source and are kept apart here.

Experiments:
Format in all cases: cell-based, human
[1] = system: Target C; test: HiBiT protein abundance assay, Target C (K562 HiBiT knock-in); conditions: HiBiT knock-in K562 cells, 24 hours, top dose 10 μM
Outline: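 K562 HiBiT knock-in cells (10000/well) were treated 24 h at 37° C with a 10-point 3-fold dilution series (top 10 μM final, ≤0.25% DMSO). HiBiT luminescence was read after lytic LgBiT detection. Percent response used unmodified K562 and DMSO-treated knock-in controls, and IC50 came from a four-parameter fit at 50% of untreated.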

[2] = system: HTT mRNA; test: RT-qPCR splicing assay, HTT mRNA canonical (CJ) and alternative (AJ) junction; conditions: Homo sapiens
Outline: (§1)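 A673 or K562 cells treated 24 h at 37 °C with an 11-point 3-fold dilution series (top 10 uM, DMSO ≤0.25%). Lysates went directly to one-step RT-qPCR quantifying canonical (CJ) and alternative-exon (AJ) junctions, normalized to GAPDH, GUSB or PPIA. Values from ΔΔCt versus DMSO, RQ = 2^(−ΔΔCt), expressed as percentage response.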

[3] = system: MYB; test: HiBiT protein abundance assay, MYB (K562 HiBiT knock-in); conditions: HiBiT knock-in K562 cells, 24 hours, top dose 10 μM
Outline: (§2)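 Endogenously HiBiT-tagged K562 lines were treated for 24 h at 37 °C with 10-point 3-fold dilutions (top 10 μM final, DMSO ≤0.25%). Lytic LgBiT complementation luminescence was normalized between unmodified K562 (PC) and DMSO-treated tagged cells (NC); IC50 was interpolated at 50% from a four-parameter logistic fit.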

[4] = system: HTT; test: HiBiT protein abundance assay, HTT (K562 HiBiT knock-in); conditions: HiBiT knock-in K562 cells, 24 hours, top dose 10 μM
Outline: as §2

[5] = system: MYB mRNA; test: RT-qPCR splicing assay, MYB mRNA canonical (CJ) and alternative (AJ) junction; conditions: Homo sapiens
Outline: as §1

[6] = RT-qPCR, HTT alternative junction mRNA increase, read-out: HTT AJ (increase in alternative junction mRNA, AC50)
[7] = RT-qPCR, HTT canonical junction mRNA decrease, read-out: HTT CJ (decrease in canonical junction mRNA, IC50)
[8] = canonical junction qPCR panel, Table 4, read-out: HTT IC50 (decrease in CJ mRNA levels)
[9] = RT-qPCR, MYB alternative junction mRNA increase, read-out: MYB AJ (increase in alternative junction mRNA, AC50)
[10] = RT-qPCR, MYB canonical junction mRNA decrease, read-out: MYB CJ (decrease in canonical junction mRNA, IC50)
[11] = canonical junction qPCR panel, Table 4, read-out: MYB IC50 (decrease in CJ mRNA levels)
[12] = HTT alternative junction mRNA, RT-qPCR, read-out: HTT AJ (increase in AJ mRNA, AC50)
[13] = HTT canonical junction mRNA, RT-qPCR, read-out: HTT CJ (decrease in CJ mRNA levels, IC50)
[14] = MYB alternative junction mRNA, RT-qPCR, read-out: MYB AJ (increase in AJ mRNA, AC50)
[15] = MYB canonical junction mRNA, RT-qPCR, read-out: MYB CJ (decrease in CJ mRNA levels, IC50)

Compound	IC50 [1]	IC50 [2, 7]	IC50 [2, 8]	IC50 [3]	IC50 [4]	IC50 [5, 10]	IC50 [5, 11]	IC50 [2, 13]	IC50 [5, 15]	AC50 [2, 6]	AC50 [5, 9]	AC50 [2, 12]	AC50 [5, 14]
C[C@H]1CN(c2cc(F)c3nc(-c4cc(F)c5nn(C)cc5c4)ccc3c2)C[C@H](C)N1 (single isomer, unassigned) [Compound 760]	100 to 1000 nM	< 100 nM	< 100 nM	< 100 nM	100 to 1000 nM	< 100 nM	< 100 nM	–	–	100 to 1000 nM	100 to 1000 nM	–	–
C[C@H]1CN(c2cc(F)c3nc(-c4cc5cn(C)nc5cc4O)ccc3c2)C[C@H](C)N1 (single isomer, unassigned) [Compound 770]	100 to 1000 nM	100 to 1000 nM	100 to 1000 nM	< 100 nM	< 100 nM	< 100 nM	< 100 nM	–	–	100 to 1000 nM	< 100 nM	–	–
Cn1cc2cc(-c3cc4ccc(C5CCNCC5)nc4cn3)c(O)cc2n1 [Compound 104]	1000 to 10000 nM	–	1000 to 10000 nM	1000 to 10000 nM	1000 to 10000 nM	–	1000 to 10000 nM	1000 to 10000 nM	1000 to 10000 nM	–	–	1000 to 10000 nM	1000 to 10000 nM
Cn1cc2cc(-c3ccc4nc(N5CC[C@H](NC6CCC6)C5)ccc4n3)c(O)cc2n1 [Compound 156]	< 100 nM	–	< 100 nM	< 100 nM	< 100 nM	–	< 100 nM	< 100 nM	< 100 nM	–	–	< 100 nM	< 100 nM
CC(C)N[C@H]1CCN(c2ccc3nc(-c4cc5cn(C)nc5cc4O)ccc3n2)C1 [Compound 171]	< 100 nM	–	< 100 nM	< 100 nM	< 100 nM	–	< 100 nM	< 100 nM	< 100 nM	–	–	< 100 nM	< 100 nM
Cc1cn2nc(-c3ccc4nc(N5CCC(NC(C)(C)C)C5)ccc4n3)cc(C)c2n1 (stereo not drawn) [Compound 186]	< 100 nM	–	< 100 nM	100 to 1000 nM	< 100 nM	–	100 to 1000 nM	< 100 nM	100 to 1000 nM	–	–	< 100 nM	< 100 nM
Cn1cc2cc(-c3ccc4nc(N5CC[C@H](NCC6CC6)C5)ccc4n3)c(O)cc2n1 [Compound 194]	< 100 nM	–	< 100 nM	< 100 nM	< 100 nM	–	< 100 nM	< 100 nM	< 100 nM	–	–	< 100 nM	< 100 nM
CN(C)C1CCN(c2ccc3nc(-c4cc5cn(C)nc5c(F)c4O)ncc3c2)CC1 [Compound 757, 5-{6-[4-(dimethylamino)piperidin-1-yl]quinazolin-2-yl}-7-fluoro-2-methylindazol-6-ol]	1000 to 10000 nM	1000 to 10000 nM	1000 to 10000 nM	< 100 nM	1000 to 10000 nM	< 100 nM	< 100 nM	–	–	1000 to 10000 nM	100 to 1000 nM	–	–
C[C@@H]1CN(c2cc(F)c3nc(-c4cc(F)c5nn(C)cc5c4)ccc3c2)C[C@H](C)N1 [Compound 758, 6-[(3R,5S)-3,5-dimethylpiperazin-1-yl]-8-fluoro-2-(7-fluoro-2-methylindazol-5-yl)quinoline]	100 to 1000 nM	100 to 1000 nM	100 to 1000 nM	100 to 1000 nM	100 to 1000 nM	100 to 1000 nM	100 to 1000 nM	–	–	1000 to 10000 nM	100 to 1000 nM	–	–
C[C@@H]1CN(c2cc(F)c3nc(-c4cc5cn(C)nc5c(F)c4O)ccc3c2)C[C@H](C)N1 [Compound 763, 5-{6-[(3R,5S)-3,5-dimethylpiperazin-1-yl]-8-fluoroquinolin-2-yl}-7-fluoro-2-methylindazol-6-ol hydrochloride]	< 100 nM	< 100 nM	< 100 nM	< 100 nM	< 100 nM	< 100 nM	< 100 nM	–	–	100 to 1000 nM	< 100 nM	–	–
C[C@@H]1CN(c2cc(F)c3nc(-c4cc5cn(C)nc5cc4O)ccc3c2)C[C@H](C)N1 [Compound 768, 5-{6-[(3R,5S)-3,5-dimethylpiperazin-1-yl]-8-fluoroquinolin-2-yl}-2-methylindazol-6-ol hydrochloride]	1000 to 10000 nM	1000 to 10000 nM	1000 to 10000 nM	< 100 nM	1000 to 10000 nM	100 to 1000 nM	100 to 1000 nM	–	–	1000 to 10000 nM	100 to 1000 nM	–	–

More lines, main results first:

IC50 [1]	IC50 [2, 7]	IC50 [2, 8]	IC50 [3]	IC50 [4]	IC50 [5, 10]	IC50 [5, 11]	IC50 [2, 13]	IC50 [5, 15]	Compound	AC50 [2, 6]	AC50 [5, 9]	AC50 [2, 12]	AC50 [5, 14]
100 to 1000 nM	100 to 1000 nM	100 to 1000 nM	100 to 1000 nM	100 to 1000 nM	< 100 nM	< 100 nM	–	–	Cc1cn2nc(-c3ccc4cc(N5C[C@H](C)N[C@@H](C)C5)cc(F)c4n3)cc(C)c2n1 (single isomer, unassigned) [Compound 799]	100 to 1000 nM	100 to 1000 nM	–	–
< 100 nM	< 100 nM	< 100 nM	< 100 nM	< 100 nM	< 100 nM	< 100 nM	–	–	Cc1c(O)c(-c2ccc3cc(N4C[C@H](C)N[C@@H](C)C4)cc(F)c3n2)cc2cn(C)nc12 (single isomer, unassigned) [Compound 800, 2,2,2-trifluoroacetate]	< 100 nM	< 100 nM	–	–
1000 to 10000 nM	> 10000 nM	> 10000 nM	< 100 nM	100 to 1000 nM	< 100 nM	< 100 nM	–	–	Cc1nc(-c2cc3cn(C)nc3cc2O)nc2ccc(N3C[C@H](C)N[C@@H](C)C3)cc12 (single isomer, unassigned) [Compound 806]	1000 to 10000 nM	100 to 1000 nM	–	–
> 10000 nM	> 10000 nM	> 10000 nM	< 100 nM	100 to 1000 nM	< 100 nM	< 100 nM	–	–	Cc1nc(-c2cc3cn(C)nc3c(C)c2O)nc2ccc(N3C[C@H](C)N[C@@H](C)C3)cc12 (single isomer, unassigned) [Compound 807]	1000 to 10000 nM	< 100 nM	–	–
100 to 1000 nM	1000 to 10000 nM	1000 to 10000 nM	< 100 nM	100 to 1000 nM	< 100 nM	< 100 nM	–	–	Cc1cn2cc(-c3ncc4cc(N5C[C@@H](C)N[C@@H](C)C5)ccc4n3)cc(F)c2n1 [Compound 773, 6-[(3R,5S)-3,5-dimethylpiperazin-1-yl]-2-{8-fluoro-2-methylimidazo[1,2-a]pyridin-6-yl}quinazoline]	1000 to 10000 nM	< 100 nM	–	–
100 to 1000 nM	1000 to 10000 nM	1000 to 10000 nM	< 100 nM	100 to 1000 nM	< 100 nM	< 100 nM	–	–	Cc1cn2cc(-c3nc(C(=O)NC4CCC4)c4cc(N5C[C@@H](C)N[C@@H](C)C5)ccc4n3)cc(F)c2n1 [Compound 779, N-cyclobutyl-6-[(3R,5S)-3,5-dimethylpiperazin-1-yl]-2-{8-fluoro-2-methylimidazo[1,2-a]pyridin-6-yl}quinazoline-4-carboxamide]	1000 to 10000 nM	< 100 nM	–	–
100 to 1000 nM	100 to 1000 nM	100 to 1000 nM	< 100 nM	100 to 1000 nM	< 100 nM	< 100 nM	–	–	Cc1c(O)c(-c2nc(C(N)=O)c3cc(N4C[C@H](C)N[C@@H](C)C4)ccc3n2)cc2cn(C)nc12 [Compound 796]	100 to 1000 nM	< 100 nM	–	–
